We go through four molecules from publication PMC12217474 (Antimicrobial Agents and Chemotherapy, 2025).

Where two headings read alike, the source gives them in different places.

The conditions of data set [1]: cited from earlier work.
For data set [2] the following is noted: for ELF AUC0-24 / Plasma AUC0-24: steady state, healthy subjects, Study I6424-108a, N = 20.
Text: (§1) By fixing the plasma PK parameters to the individual post hoc values, it was possible to predict ELF concentrations using a biophase model with unidirectional first-order transfer from the central compartment to ELF (k13) and first-order elimination from the ELF compartment (k30). In order to allow for the estimation of IIV in k30, since only one ELF measurement was collected per subject, the residual variability of ELF data was fixed to be equal to that previously estimated for the plasma PK data in healthy subjects from Phases 1 and 4 studies. […] In this simulation, the parameter estimates from the modified final population PK model were utilized along with the mean (standard deviation) of the subject covariate effects in the model, such as age and body weight from healthy subjects in Study I6424-108a.
A short description of data set [3]: clinical. The conditions noted are these: human, iv, 10 mg/kg; for Kp uu: epithelial lining fluid (ELF) / plasma; for Kp: epithelial lining fluid (ELF) versus total-drug plasma, ELF penetration ratio (total drug).
Text: as §1
Where [4] appears, read: final population PK model, final estimate.

As to vancomycin, in data set [1] (healthy volunteers with outliers removed), the ELF penetration is 41%–56.

Regarding `CCCCCCCCCCNCCN[C@@]1(C)C[C@H](O[C@H]2[C@H](Oc3c4cc5cc3Oc3ccc(cc3Cl)[C@@H](O)[C@@H](NC(=O)[C@@H](CC(C)C)NC)C(=O)N[C@@H](CC(N)=O)C(=O)N[C@H]5C(=O)N[C@H]3C(=O)N[C@H](C(=O)N[C@H](C(=O)O)c5cc(O)c(CNCP(=O)(O)O)c(O)c5-c5cc3ccc5O)[C@H](O)c3ccc(c(Cl)c3)O4)O[C@H](CO)[C@@H](O)[C@@H]2O)O[C@@H](C)[C@H]1O` [telavancin], under “bootstrap (N = 200), mean”, the “CLDL (dialysis clearance)” value is 1.79 L/h; the “CLR, max (maximum renal clearance)” value turned out to be 1.04 L/h; the “CLd coefficient (distributional clearance between central and peripheral compartments)” value (“CLd coefficient” below) was 3.78 L/h; the Vc-TBW power came out at 0.438. For the same molecule, where the note is “bootstrap (N = 200), mean”, the Vc-age power turned out to be 0.184, the “Vc-increase for CKD5 subjects after >48 hours has elapsed between IHD sessions” value (“Vc-increase for CKD5 subjects” for short) is 1.57 L, the “Vc-proportional increase for bacteremia/HABP/VABP patients” value stood at 0.600 and the “Vc-proportional increase for cSSSI patients” value came out at 0.299. Also, under “bootstrap (N = 200), mean”, the “Vc-proportional increase for females” value is listed as −0.0583, the Vp-BMI power is reported as −0.325, the Vp-TBW power worked out at 0.971 and the Vp-age power came out at 0.289. For the same molecule, for the setting “bootstrap (N = 200), mean”, the “Vp-proportional increase for bacteremia/HABP/VABP patients” value worked out at 0.288 and the “Vp-proportional increase for cSSSI patients” value was found to be 0.127. Moreover, under “bootstrap (N = 200), median”, the “CLDL (dialysis clearance)” value was 1.77 L/h; the “CLR, max (maximum renal clearance)” value is 1.04 L/h; the “CLd coefficient” value amounted to 3.75 L/h; the Vc-TBW power is given as 0.442. Under “bootstrap (N = 200), median”, the Vc-age power came out at 0.183, the “Vc-increase for CKD5 subjects” value turned out to be 1.56 L, the “Vc-proportional increase for bacteremia/HABP/VABP patients” value worked out at 0.599 and the “Vc-proportional increase for cSSSI patients” value was 0.300. Further, under “bootstrap (N = 200), median”, the “Vc-proportional increase for females” value is reported as −0.0577, the Vp-BMI power is given as −0.317, the Vp-TBW power worked out at 0.969 and the Vp-age power was 0.289. Where the note is “bootstrap (N = 200), median”, the “Vp-proportional increase for bacteremia/HABP/VABP patients” value is 0.295 and the “Vp-proportional increase for cSSSI patients” value amounted to 0.125. Also, the “CLNR (non-renal clearance)” value (bootstrap of final population PK model (N = 200), mean) was determined as 0.399 L/h. For the same molecule, the “CLNR (non-renal clearance)” value (bootstrap of final population PK model (N = 200), median) was found to be 0.402 L/h. For the same molecule, under setting [4], the Vc-TBW power is on record as 0.469, the Vc-age power is given as 0.188, the “Vc-proportional increase for bacteremia/HABP/VABP patients” value was 0.578 and the “Vc-proportional increase for cSSSI patients” value is recorded as 0.313. Further, under setting [4], the “Vc-proportional increase for females” value is on record as −0.0584, the Vp-BMI power was −0.308, the Vp-TBW power is 0.976 and the Vp-age power is given as 0.272. Under setting [4], the “Vp-proportional increase for bacteremia/HABP/VABP patients” value was 0.329 and the “Vp-proportional increase for cSSSI patients” value is listed as 0.118. The “CLR, max (maximum renal clearance)” value (final population PK model, final estimate, Hill-type CLR-CLcr relationship, N = 1,205) was 1.04 L/h. For the same molecule, the “CLd coefficient” value (final population PK model, final estimate, N = 1,205) was 3.73 L/h. The “Vc-increase for CKD5 subjects” value (final population PK model, final estimate, additive increase) is 1.55 L. The “CLDL (dialysis clearance)” value (final population PK model, final estimate, during active intermittent hemodialysis, eight CKD5 subjects) was 1.77 L/h. Further, the “CLNR (non-renal clearance)” value (final population PK model, final estimate, plasma, IV, healthy subjects and patients, N = 1,205) was 0.407 L/h. Further, the “k30 (first-order elimination from the ELF compartment)” value in data set [2] (ELF population PK model, final estimate, 18 healthy subjects) is 0.154 h⁻¹. Besides, the “ELF AUC0-24” value in data set [2] (10 mg/kg IV q24h, urea-corrected BAL, mean (SD), SD) is on record as 54.5 (16.1) mg·hour/L. For the same molecule, in data set [2] (10 mg/kg IV q24h, maximum), the “ELF AUC0-24” value came to 99.0 mg·h/L and the “Plasma AUC0-24” value worked out at 954 mg·h/L. Also, in data set [2] (10 mg/kg IV q24h, median), the “ELF AUC0-24” value is 50.6 mg·h/L and the “Plasma AUC0-24” value came to 757 mg·h/L. Also, in data set [2] (10 mg/kg IV q24h, minimum), the “ELF AUC0-24” value turned out to be 38.3 mg·h/L and the “Plasma AUC0-24” value amounted to 570 mg·h/L. Moreover, the “Plasma AUC0-24” value in data set [2] (10 mg/kg IV q24h for 3 days, mean (SD), SD) was 750 (103) mg·hour/L. In addition, the Kp uu in data set [3] (ELF penetration ratio (free drug), ELF AUC0-24/(0.1 total-drug plasma AUC0-24), median, N = 20) amounted to 0.683. This molecule also gave a Kp uu in data set [3] (SD) of 0.73. For the same molecule, the Kp (commonly the ratio of the level in a tissue or fluid to that in plasma or blood) in data set [3] (ELF AUC0-24/total-drug plasma AUC0-24, healthy subjects, Study I6424-108a, mean (SD), N = 20, SD) is 0.073. Moreover, in data set [3] (ELF AUC0-24/total-drug plasma AUC0-24, median, N = 20), the Kp worked out at 0.0683.

With oritavancin, in data set [1] (in vivo), the “reported ELF penetration ratio” value is on record as 459%.

Take dalbavancin: the “reported ELF penetration” value in data set [1] was 36%.
